{"source": "patent US20060069132A1", "about": "“Azolecarboxamide herbicides” (priority 2004, published 2006)", "key": {"rice": {"test_system": "rice", "test": "Test B pre-/postemergence herbicide test", "type": "in vivo, Oryza sativa", "conditions": "preemergence", "how_it_was_run": "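Species tested were Echinochloa crus-galli, Ipomoea coccinea, Xanthium strumarium and Oryza sativa, treated both before emergence and at the 1- to 4-leaf stage; rice and barnyardgrass were also tested under flooding at 2 leaves. Greenhouse incubation lasted 13–15 days before visual 0–100 scoring.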"}, "morningglory [1]": {"test_system": "morningglory", "test": "Test A pre-/postemergence herbicide test", "type": "in vivo, Ipomoea spp.", "how_it_was_run": "(§1)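 Visual injury rating on a 0–100 scale (0 no effect, 100 complete control) versus untreated controls, about ten days after treatment in greenhouse. Pre: directed soil spray onto seeded sandy loam. Post: spray to runoff on plants 2–10 cm tall at one- to two-leaf stage.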"}, "morningglory [2]": {"test_system": "morningglory", "test": "Test C pre-/postemergence herbicide test", "type": "in vivo, Ipomoea coccinea", "set-up": "key to Plant response rating, Morningglory: 0 = no effect, 100 = complete control", "how_it_was_run": "(§2)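 Pre- and postemergence application, solvent/surfactant formulation; post at 1- to 4-leaf stage (2–18 cm). Greenhouse 12–14 d. Visual rating vs controls, 0 = no effect, 100 = complete control.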"}, "lambsquarters": {"test_system": "lambsquarters", "test": "Test C pre-/postemergence herbicide test", "type": "in vivo, Chenopodium album", "conditions": "preemergence", "how_it_was_run": "as §2"}, "barnyardgrass": {"test_system": "barnyardgrass", "test": "Test C flooded paddy test", "type": "in vivo, Echinochloa crus-galli", "how_it_was_run": "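Visual rating, 0 (no effect) to 100 (complete control), vs. controls at 12–14 d in greenhouse. Postemergence: 1–4-leaf plants, 2–18 cm. Paddy: flooded, barnyardgrass at 2-leaf stage.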"}, "giant foxtail": {"test_system": "giant foxtail", "test": "Test A pre-/postemergence herbicide test", "type": "in vivo, Setaria faberi", "how_it_was_run": "as §1"}, "johnsongrass": {"test_system": "johnsongrass", "test": "Test C pre-/postemergence herbicide test", "type": "in vivo, Sorghum halepense", "how_it_was_run": "as §2"}, "velvetleaf": {"test_system": "velvetleaf", "test": "Test C pre-/postemergence herbicide test", "type": "in vivo, Abutilon theophrasti", "how_it_was_run": "as §2"}, "[3]": {"test_system": "smallflower umbrella sedge", "test": "Test C flooded paddy test", "type": "in vivo, Cyperus difformis"}, "[4]": {"conditions": "Postemergence, 500 g ai/ha, 0 to 100 scale, 0 no effect, 100 complete control"}, "[5]": {"conditions": "Postemergence, 2000 g ai/ha, 0 to 100 scale, 0 no effect, 100 complete control"}, "[6]": {"conditions": "Preemergence, 500 g ai/ha, visual rating, 0 to 100 scale (0 no effect, 100 complete control)"}, "[7]": {"conditions": "Preemergence, 2000 g ai/ha, visual rating, 0 to 100 scale (0 no effect, 100 complete control)"}, "[8]": {"conditions": "125 g ai/ha, scale 0 (no effect) to 100 (complete control), visual, 12 to 14 days, preemergence"}, "[9]": {"conditions": "Postemergence, 250 g ai/ha, scale 0 to 100, 0 no effect, 100 complete control"}, "[10]": {"conditions": "postemergence, 125 g ai/ha, scale 0 to 100"}, "[11]": {"conditions": "postemergence, 62 g ai/ha, scale 0 to 100"}, "[12]": {"conditions": "62 g ai/ha, scale 0 to 100 (0 no effect, 100 complete control)"}, "[13]": {"conditions": "250 g ai/ha, scale of 0 to 100, 0 is no effect, 100 is complete control"}, "[14]": {"conditions": "500 g ai/ha, visual rating after 12 to 14 days, scale 0 to 100 (0 no effect, 100 complete control)"}}}
{"smiles": "CCn1nc(C(C)(C)C)cc1C(=O)Nc1cccc(C#N)c1", "note": "[Compound 139]", "values": [{"measurement": "Plant response rating, Rice", "setting": "rice; 500 g ai/ha, visual rating 0-100, 0 no effect, 100 complete control", "value": 60}, {"measurement": "Plant response rating, Rice", "setting": "rice; 125 g ai/ha, 0 to 100 scale, 0 is no effect, 100 is complete control", "value": 30}, {"measurement": "Morningglory plant response rating", "setting": "morningglory [1]; [4]", "value": 20}, {"measurement": "Plant response rating, Morningglory", "setting": "morningglory [1]; [5]", "value": 35}, {"measurement": "Morningglory plant response rating", "setting": "morningglory [1]; [6]", "value": 30}, {"measurement": "Morningglory plant response rating", "setting": "morningglory [1]; [7]", "value": 85}, {"measurement": "Plant response rating (0 = no effect, 100 = complete control), Morningglory", "setting": "morningglory [2]; 62 g ai/ha, preemergence", "value": 0}, {"measurement": "Plant response rating, Morningglory", "setting": "morningglory [2]; [8]", "value": 10}, {"measurement": "Plant response rating, Morningglory", "setting": "morningglory [2]; [9]", "value": 60}, {"measurement": "Plant response rating, Morningglory", "setting": "morningglory [2]; [10]", "value": 50}, {"measurement": "Plant response rating, Morningglory", "setting": "morningglory [2]; [11]", "value": 0}, {"measurement": "Plant response rating (0 = no effect, 100 = complete control), Lambsquarters", "setting": "lambsquarters; 62 g ai/ha", "value": 100}, {"measurement": "Plant response rating, Lambsquarters", "setting": "lambsquarters; 125 g ai/ha, scale 0 (no effect) to 100 (complete control), visual, 12 to 14 days", "value": 100}, {"measurement": "Barnyardgrass plant response rating", "setting": "barnyardgrass; [12]", "value": 15}, {"measurement": "Barnyardgrass plant response rating", "setting": "barnyardgrass; 125 g ai/ha, scale of 0 to 100, 0 is no effect, 100 is complete control", "value": 40}, {"measurement": "Barnyardgrass plant response rating", "setting": "barnyardgrass; [13]", "value": 55}, {"measurement": "Plant response rating, Barnyardgrass", "setting": "barnyardgrass; [14]", "value": 65}, {"measurement": "Foxtail, Giant plant response rating", "setting": "giant foxtail; [4]", "value": 20}, {"measurement": "Plant response rating, Foxtail, Giant", "setting": "giant foxtail; [5]", "value": 40}, {"measurement": "Foxtail, Giant plant response rating", "setting": "giant foxtail; [6]", "value": 60}, {"measurement": "Foxtail, Giant plant response rating", "setting": "giant foxtail; [7]", "value": 75}, {"measurement": "Plant response rating (0 = no effect, 100 = complete control), Johnsongrass", "setting": "johnsongrass; 62 g ai/ha, preemergence", "value": 20}, {"measurement": "Plant response rating, Johnsongrass", "setting": "johnsongrass; [8]", "value": 30}, {"measurement": "Plant response rating, Johnsongrass", "setting": "johnsongrass; [9]", "value": 0}, {"measurement": "Plant response rating, Johnsongrass", "setting": "johnsongrass; [10]", "value": 0}, {"measurement": "Plant response rating, Johnsongrass", "setting": "johnsongrass; [11]", "value": 0}, {"measurement": "Plant response rating, Velvetleaf", "setting": "velvetleaf; [8]", "value": 30}, {"measurement": "Plant response rating, Velvetleaf", "setting": "velvetleaf; [9]", "value": 50}, {"measurement": "Plant response rating, Velvetleaf", "setting": "velvetleaf; [10]", "value": 50}, {"measurement": "Plant response rating, Velvetleaf", "setting": "velvetleaf; [11]", "value": 30}, {"measurement": "Sedge, Umbrella plant response rating", "setting": "[3]; [12]", "value": 75}, {"measurement": "Sedge, Umbrella plant response rating", "setting": "[3]; 125 g ai/ha, scale 0 to 100 (0 no effect, 100 complete control)", "value": 80}, {"measurement": "Sedge, Umbrella plant response rating", "setting": "[3]; [13]", "value": 85}, {"measurement": "Plant response rating, Sedge, Umbrella", "setting": "[3]; [14]", "value": 85}]}
